We go through 20 compounds from patent US20250059180A1 (DONG WHA PHARM. CO., LTD., priority 2022, published 2025).

The subject of one experiment is Pfeiffer cells, lymphoma cells having EZH2 mutation (A677G). Briefly: Proliferation inhibition of cells of hematologic malignancies (CCK-8, 11 days). The settings on record: 11 days culture, read-out: Cell proliferation inhibitory effect (IC50). Format: cell-based. As to the method:
The growth inhibitory activity of 1,3-benzodioxole derivative compounds represented by chemical formula I of the present invention against Pfeiffer cells, which are lymphoma cells having EZH2 mutation (A677G), was evaluated.
Pfeiffer was cultured using RPMI1640 containing 10% fetal bovine serum. The cells were inoculated into wells of a 96-well culture dish at 10,000 cells each, and cultured for 11 days after treating with the test material for each concentration. For 11 days, the test material was replaced every three to four days. After culturing, the cells were treated with a cell counting kit-8 (CCK-8) reagent for each well, absorbance was measured at 450 nm, and IC50 values for cell proliferation were obtained through curve fitting of non-linear regression in the GraphPad program (GraphPad Prism 5.0 software).
In the case of `CSc1cc(C)[nH]c(=O)c1CNC(=O)c1cc(-c2ccc(N3C[C@@H](C)O[C@@H](C)C3)nc2)c2c(c1C)OC(C)([C@H]1CC[C@H](N(C)CC(F)(F)F)CC1)O2` (single isomer, unassigned) [Compound 107], the IC50 is not above 10 nM.

Turning to `CSc1cc(C)[nH]c(=O)c1CNC(=O)c1cc(-c2ccc(N3C[C@@H](C)O[C@@H](C)C3)nc2)c2c(c1C)OC(C)([C@H]1CC[C@H](N(C)CC(F)(F)F)CC1)O2` (single isomer, unassigned) [Compound 108], the IC50 is not below 100 nM.

The experiment is the same for the next values; noted with them: Homo sapiens, Pfeiffer, 264 h, 11 days culture, read-out: Cell proliferation inhibitory effect (IC50).
For `CCN(C)c1ccc(-c2cc(C(=O)NCc3c(SC)cc(C)[nH]c3=O)c(C)c3c2OC(C)(C2CCN(CC(F)F)CC2)O3)cn1` (single isomer, unassigned) [Compound 88, 2-(1-(2,2-difluoroethyl)piperidin-4-yl)-7-(6-(ethyl(methyl)amino)pyridin-3-yl)-2,4-dimethyl-N-((6-methyl-4-(methylthio)-2-oxo-1,2-dihydropyridin-3-yl)methyl)benzo[d][1,3]dioxole-5-carboxamide], the IC50 was not above 10 nM.

Consider `CCN1CCC(C2(C)Oc3c(-c4ccc(N(C)CC)nc4)cc(C(=O)NCc4c(SC)cc(C)[nH]c4=O)c(C)c3O2)CC1` (single isomer, unassigned) [Compound 89, 7-(6-(ethyl(methyl)amino)pyridin-3-yl)-2-(1-ethylpiperidin-4-yl)-2,4-dimethyl-N-((6-methyl-4-(methylthio)-2-oxo-1,2-dihydropyridin-3-yl)methyl)benzo[d][1,3]dioxole-5-carboxamide], for which the IC50 was not above 10 nM.

For `CSc1cc(C)[nH]c(=O)c1CNC(=O)c1cc(-c2ccc(N3C[C@@H](C)O[C@@H](C)C3)nc2)c2c(c1C)OC(C)([C@H]1CC[C@H](N(C)C)CC1)O2` (stereo partly drawn) [Compound 1, 2-(trans-4-(dimethylamino)cyclohexyl)-7-(6-((2S,6R)-2,6-dimethylmorpholino)pyridin-3-yl)-2,4-dimethyl-N-((6-methyl-4-(methylthio)-2-oxo-1,2-dihydropyridin-3-yl)methyl)benzo[d][1,3]dioxole-5-carboxamide], the IC50 was not above 10 nM.

For `CSc1cc(C)[nH]c(=O)c1CNC(=O)c1cc(-c2cnc(N3C[C@@H](C)O[C@@H](C)C3)nc2)c2c(c1C)OC(C)([C@H]1CC[C@H](N(C)C)CC1)O2` (stereo partly drawn) [Compound 2, 2-(trans-4-(dimethylamino)cyclohexyl)-7-(2-((2S,6R)-2,6-dimethylaminomorpholino)pyrimidin-5-yl)-2,4-dimethyl-N-((6-methyl-4-(methylthio)-2-oxo-1,2-dihydropyridin-3-yl)methyl)benzo[d][1,3]dioxole-5-carboxamide], the IC50 was not above 10 nM.

For `CSc1cc(C)[nH]c(=O)c1CNC(=O)c1cc(-c2ccc(N3CCC(F)(F)CC3)nc2)c2c(c1C)OC(C)([C@H]1CC[C@H](N(C)C)CC1)O2` (stereo partly drawn) [Compound 3, 7-(6-(4,4-difluoropiperidin-1-yl)pyridin-3-yl)-2-(trans-4-(dimethylamino)cyclohexyl)-2,4-dimethyl-N-((6-methyl-4-(methylthio)-2-oxo-1,2-dihydropyridin-3-yl)methyl)benzo[d][1,3]dioxole-5-carboxamide], the IC50 was not above 10 nM.

Regarding `CSc1cc(C)[nH]c(=O)c1CNC(=O)c1cc(-c2cnc(N3CCCCC3)nc2)c2c(c1C)OC(C)([C@H]1CC[C@H](N(C)C)CC1)O2` (stereo partly drawn) [Compound 4, 2-(trans-4-(dimethylamino)cyclohexyl)-2,4-dimethyl-N-((6-methyl-4-(methylthio)-2-oxo-1,2-dihydropyridin-3-yl)methyl)-7-(2-(piperidin-1-yl)pyrimidin-5-yl)benzo[d][1,3]dioxole-5-carboxamide], the IC50 is not above 10 nM.

For `CSc1cc(C)[nH]c(=O)c1CNC(=O)c1cc(-c2cnc(N3CCCC3)nc2)c2c(c1C)OC(C)([C@H]1CC[C@H](N(C)C)CC1)O2` (stereo partly drawn) [Compound 5, 2-(trans-4-(dimethylamino)cyclohexyl)-2,4-dimethyl-N-((6-methyl-4-(methylthio)-2-oxo-1,2-dihydropyridin-3-yl)methyl)-7-(2-(pyrrolidin-1-yl)pyrimidin-5-yl)benzo[d][1,3]dioxole-5-carboxamide], the IC50 was not above 10 nM.

In the case of `CSc1cc(C)[nH]c(=O)c1CNC(=O)c1cc(-c2ccc(CN3CCOCC3)cc2)c2c(c1C)OC(C)([C@H]1CC[C@H](N(C)C)CC1)O2` (stereo partly drawn) [Compound 6, 2-(trans-4-(dimethylamino)cyclohexyl)-2,4-dimethyl-N-((6-methyl-4-(methylthio)-2-oxo-1,2-dihydropyridin-3-yl)methyl)-7-(4-(morpholinomethyl)phenyl)benzo[d][1,3]dioxole-5-carboxamide], the IC50 is not above 10 nM.

On to `CSc1cc(C)[nH]c(=O)c1CNC(=O)c1cc(-c2ccc3c(ccn3C)c2)c2c(c1C)OC(C)([C@H]1CC[C@H](N(C)C)CC1)O2` (stereo partly drawn) [Compound 7, 2-(trans-4-(dimethylamino)cyclohexyl)-2,4-dimethyl-7-(1-methyl-1H-indol-5-yl)-N-((6-methyl-4-(methylthio)-2-oxo-1,2-dihydropyridin-3-yl)methyl)benzo[d][1,3]dioxole-5-carboxamide], for which the IC50 was not above 10 nM.

Turning to `CSc1cc(C)[nH]c(=O)c1CNC(=O)c1cc(-c2cnc(N3CCC(F)(F)CC3)nc2)c2c(c1C)OC(C)([C@H]1CC[C@H](N(C)C)CC1)O2` (stereo partly drawn) [Compound 8, 7-(2-(4,4-difluoropiperidin-1-yl)pyrimidin-5-yl)-2-(trans-4-(dimethylamino)cyclohexyl)-2,4-dimethyl-N-((6-methyl-4-(methylthio)-2-oxo-1,2-dihydropyridin-3-yl)methyl)benzo[d][1,3]dioxole-5-carboxamide], the IC50 is not above 10 nM.

As to `CSc1cc(C)[nH]c(=O)c1CNC(=O)c1cc(-c2ccc(N3CCOCC3)cc2)c2c(c1C)OC(C)([C@H]1CC[C@H](N(C)C)CC1)O2` (stereo partly drawn) [Compound 9, 2-(trans-4-(dimethylamino)cyclohexyl)-2,4-dimethyl-N-((6-methyl-4-(methylthio)-2-oxo-1,2-dihydropyridin-3-yl)methyl)-7-(4-morpholinophenyl)benzo[d][1,3]dioxole-5-carboxamide], the IC50 was not above 10 nM.

As for `CSc1cc(C)[nH]c(=O)c1CNC(=O)c1cc(-c2ccc(F)cc2)c2c(c1C)OC(C)([C@H]1CC[C@H](N(C)C)CC1)O2` (stereo partly drawn) [Compound 10, 2-(trans-4-(dimethylamino)cyclohexyl)-7-(4-fluorophenyl)-2,4-dimethyl-N-((6-methyl-4-(methylthio)-2-oxo-1,2-dihydropyridin-3-yl)methyl)benzo[d][1,3]dioxole-5-carboxamide], the IC50 was not above 10 nM.

As to `CSc1cc(C)[nH]c(=O)c1CNC(=O)c1cc(-c2ccsc2)c2c(c1C)OC(C)([C@H]1CC[C@H](N(C)C)CC1)O2` (stereo partly drawn) [Compound 11, 2-(trans-4-(dimethylamino)cyclohexyl)-2,4-dimethyl-N-((6-methyl-4-(methylthio)-2-oxo-1,2-dihydropyridin-3-yl)methyl)-7-(thiophene-3-yl)benzo[d][1,3]dioxole-5-carboxamide], the IC50 was not above 10 nM.

Regarding `COc1ccc(F)cc1-c1cc(C(=O)NCc2c(SC)cc(C)[nH]c2=O)c(C)c2c1OC(C)([C@H]1CC[C@H](N(C)C)CC1)O2` (stereo partly drawn) [Compound 12, 2-(trans-4-(dimethylamino)cyclohexyl)-7-(5-fluoro-2-methoxyphenyl)-2,4-dimethyl-N-((6-methyl-4-(methylthio)-2-oxo-1,2-dihydropyridin-3-yl)methyl)benzo[d][1,3]dioxole-5-carboxamide], the IC50 is 10 to 100 nM.

As for `CSc1cc(C)[nH]c(=O)c1CNC(=O)c1cc(-c2c(C)noc2C)c2c(c1C)OC(C)([C@H]1CC[C@H](N(C)C)CC1)O2` (stereo partly drawn) [Compound 13, 2-(trans-4-(dimethylamino)cyclohexyl)-7-(3,5-dimethylisoxazol-4-yl)-2,4-dimethyl-N-((6-methyl-4-(methylthio)-2-oxo-1,2-dihydropyridin-3-yl)methyl)benzo[d][1,3]dioxole-5-carboxamide], the IC50 was not above 10 nM.

In the case of `CSc1cc(C)[nH]c(=O)c1CNC(=O)c1cc(-c2ccc(F)nc2F)c2c(c1C)OC(C)([C@H]1CC[C@H](N(C)C)CC1)O2` (stereo partly drawn) [Compound 14, 7-(2,6-difluoropyridin-3-yl)-2-(trans-4-(dimethylamino)cyclohexyl)-2,4-dimethyl-N-((6-methyl-4-(methylthio)-2-oxo-1,2-dihydropyridin-3-yl)methyl)benzo[d][1,3]dioxole-5-carboxamide], the IC50 was not above 10 nM.

Turning to `CSc1cc(C)[nH]c(=O)c1CNC(=O)c1cc(-c2cnc(N3CCC4(CC3)COC4)nc2)c2c(c1C)OC(C)([C@H]1CC[C@H](N(C)C)CC1)O2` (stereo partly drawn) [Compound 15, 7-(2-(2-oxa-7-azaspiro[3.5]nonan-7-yl)pyrimidin-5-yl)-2-(trans-4-(dimethylamino)cyclohexyl)-2,4-dimethyl-N-((6-methyl-4-(methylthio)-2-oxo-1,2-dihydropyridin-3-yl)methyl)benzo[d][1,3]dioxole-5-carboxamide], the IC50 was not above 10 nM.

For `CSc1cc(C)[nH]c(=O)c1CNC(=O)c1cc(-c2ccc(N3CC(C)CC(C)C3)nc2)c2c(c1C)OC(C)([C@H]1CC[C@H](N(C)C)CC1)O2` (stereo partly drawn) [Compound 16, 2-(trans-4-(dimethylamino)cyclohexyl)-7-(6-(3,5-dimethylpiperidin-1-yl)pyridin-3-yl)-2,4-dimethyl-N-((6-methyl-4-(methylthio)-2-oxo-1,2-dihydropyridin-3-yl)methyl)benzo[d][1,3]dioxole-5-carboxamide], the IC50 is not above 10 nM.
